This is an account of results in the supplement of paper PMC6470124.

The nature of data set [1]: absolute recovery over vacuum-assisted evaporative concentration; higher = better recovery. The note with it: enrichment method: VEC. In a few lines: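 Absolute recovery was calculated as (response ratio pre − unspiked)/(post − unspiked) × 100 from averages of ≥ 2 replicates. Influent (6 mL), effluent (15 mL), and surface and nanopure water (60 mL) samples were spiked with standards before concentration, after concentration, or not at all, at 200 ng/L for nanopure and surface water or 1000 ng/L for wastewater, with class- and compound-specific adjustments. Samples were evaporated at 55 °C and 20 mbar to about 0.3 mL, made up to 0.4 mL and centrifuged, then internal standards were added before LC-HRMS/MS analysis.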

Data set [2] can be described thus: absolute recovery over mixed-bed multilayer solid-phase extraction; higher = better recovery. Particulars: enrichment method: SPE. In a few lines: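 Wastewater (100–250 mL, adjusted to pH 6.5 and glass-fibre filtered) or 1000 mL unfiltered nanopure water was loaded on a three-layer mixed-bed cartridge and eluted with basic then acidic ethyl acetate/methanol. Standards were spiked before extraction, after it, or not at all, at 200 ng/L (water) or 1000 ng/L (wastewater), with class exceptions. Internal standards were added afterwards, then LC-HRMS/MS ran in both ionisation modes. Absolute recovery compares background-corrected response ratios of pre- versus post-spiked samples, averaged over at least two replicates.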

Data set [3] in a line: LC retention time (Atlantis T3, 5-95% MeOH gradient, 0.1% formic acid); higher = more retained / less polar. In a few lines: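 Retention times were recorded for reference standards (purity ≥ 95%) on a polar reversed-phase C18 column (Atlantis T3, 3 × 150 mm, 3 μm) at 0.3 mL/min. Elution used water and methanol, each with 0.1% formic acid, in a gradient from 5 to 95% methanol over 17.5 min. Detection was by high-resolution tandem mass spectrometry on a QExactive Plus, with positive and negative electrospray in separate runs. Peaks were found and integrated in TraceFinder (5 ppm tolerance, at least three points per peak) and then checked by hand.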

Structures are written as SMILES.

Regarding `CC(C)c1nc(N(C)S(C)(=O)=O)nc(-c2ccc(F)cc2)c1C=CC(O)CC(O)CC(=O)[O-]` (centres undefined) [Rosuvastatin], the absolute recovery worked out at 108% in data set [1] (wastewater effluent); 91.4% in data set [1] (wastewater influent); 96.2% in data set [2] (nanopure water); 92.9% in data set [2] (surface water); 90% in data set [2] (wastewater effluent); 90.1% in data set [2] (wastewater influent). The LC retention time in data set [3] came to 18.3 min.

For the molecule `CCC1OC(=O)C(C)C(OC2CC(C)(OC)C(O)C(C)O2)C(C)C(OC2OC(C)CC([NH+](C)C)C2O)C(C)(O)CC(C)C(=NOCOCCOC)C(C)C(O)C1(C)O` (centres undefined) [Roxithromycin], the absolute recovery was 90.2% in data set [1] (wastewater effluent); 90.4% in data set [1] (wastewater influent); 80.1% in data set [2] (nanopure water); 95.7% in data set [2] (surface water); 87.5% in data set [2] (wastewater effluent); 98.8% in data set [2] (wastewater influent). The LC retention time in data set [3] is 17 min.

Consider `NC(=O)c1cn(Cc2c(F)cccc2F)nn1` [Rufinamid], for which the absolute recovery in data set [1] (wastewater effluent) was 98.5%; in data set [1] (wastewater influent), 104%; in data set [2] (nanopure water) it was 122%; in data set [2] (surface water), 101%; in data set [2] (wastewater effluent) it was 100%; in data set [2] (wastewater influent) it was 92.3%. This molecule also gave an LC retention time in data set [3] of 14 min.

Take `O=C1[N-]S(=O)(=O)c2ccccc21` [Saccharin]: the absolute recovery in data set [1] (wastewater effluent) stood at 102%; in data set [2] (nanopure water) it was 101%; in data set [2] (surface water), 105%; in data set [2] (wastewater effluent) it was 95.6%. Moreover, in data set [3], the LC retention time amounted to 11.6 min.

On to `CCNc1nc(O)nc(NCC)n1` [Simazin-2-hydroxy], for which the absolute recovery in data set [1] (wastewater effluent) came to 105%; in data set [1] (wastewater influent), 107%; in data set [2] (nanopure water), 84.5%; in data set [2] (surface water) it was 78.7%; in data set [2] (wastewater effluent) it was 88.3%; in data set [2] (wastewater influent) it was 82.7%. This molecule also showed an LC retention time in data set [3] of 10.1 min.

Regarding `CCNc1nc(Cl)nc(NCC)n1` [Simazin], the absolute recovery in data set [1] (wastewater effluent) stood at 98.3%; in data set [1] (wastewater influent) it was 106%; in data set [2] (nanopure water), 94.2%; in data set [2] (surface water), 94.4%; in data set [2] (wastewater effluent) it was 88.3%; in data set [2] (wastewater influent), 94.9%. This molecule also gave an LC retention time in data set [3] of 17.2 min.

With `CCNc1nc(NCC)nc(OC)n1` [Simeton], the absolute recovery in data set [1] (wastewater effluent) came out at 101%; in data set [1] (wastewater influent) it was 102%; in data set [2] (nanopure water) it was 77.1%; in data set [2] (surface water) it was 86%; in data set [2] (wastewater effluent) it was 85.7%; in data set [2] (wastewater influent), 88.7%. In data set [3], this molecule yielded an LC retention time of 13 min.

As for `CC(C)[NH2+]CC(O)c1ccc(NS(C)(=O)=O)cc1` (centres undefined) [Sotalol], the absolute recovery in data set [1] (wastewater effluent) came to 104%; in data set [1] (wastewater influent), 103%; in data set [2] (nanopure water), 96.1%; in data set [2] (surface water) it was 93%; in data set [2] (wastewater effluent) it was 92.5%; in data set [2] (wastewater influent), 92%. This molecule gave an LC retention time in data set [3] of 8.25 min.

Consider `CCC(C)(C)C(=O)OC1=C(c2ccc(Cl)cc2Cl)C(=O)OC12CCCCC2` [Spirodiclofen], for which the absolute recovery in data set [1] (wastewater effluent) was 77.8%; in data set [1] (wastewater influent), 44.4%; in data set [2] (surface water) it was 12.2%; in data set [2] (wastewater effluent), 18%. In data set [3], this molecule came in with an LC retention time of 23.8 min.

Consider `CC(=O)SC1CC2=CC(=O)CCC2(C)C2CCC3(C)C(CCC34CCC(=O)O4)C12` (centres undefined) [Spironolacton], for which the absolute recovery in data set [1] (wastewater effluent) worked out at 93.7%; in data set [1] (wastewater influent), 91.9%; in data set [2] (nanopure water) it was 80.9%; in data set [2] (surface water) it was 79.1%; in data set [2] (wastewater effluent), 87.9%; in data set [2] (wastewater influent) it was 92%. For the same molecule, in data set [3], the LC retention time amounted to 19.3 min.

Turning to `CCOC(=O)OC1=C(c2cc(C)ccc2C)C(=O)NC12CCC(OC)CC2` (centres undefined) [Spirotetramat], the absolute recovery in data set [1] (wastewater effluent) is 61.7%; in data set [1] (wastewater influent), 54.9%; in data set [2] (nanopure water) it was 12%; in data set [2] (surface water) it was 16.9%; in data set [2] (wastewater effluent), 29.9%; in data set [2] (wastewater influent), 27%. In data set [3], this molecule yielded an LC retention time of 20 min.

For the molecule `CCC[NH+](CC)CC1COC2(CCC(C(C)(C)C)CC2)O1` (centres undefined) [Spiroxamin], the absolute recovery in data set [1] (wastewater effluent) was found to be 91.4%; in data set [1] (wastewater influent), 66.6%; in data set [2] (nanopure water) it was 83%; in data set [2] (surface water) it was 102%; in data set [2] (wastewater effluent), 90.3%; in data set [2] (wastewater influent), 71.8%. In data set [3], this molecule gave an LC retention time of 16.9 min.

In the case of `OCC1OC(OC2(CCl)OC(CCl)C(O)C2O)C(O)C(O)C1Cl` (centres undefined) [Sucralose], the absolute recovery in data set [1] (wastewater influent) is 108%; in data set [2] (nanopure water), 95%. Moreover, the LC retention time in data set [3] was 13.4 min.

With `CS(=O)(=O)c1ccc(C(=O)[O-])c(Cl)c1` [Sulcotrion-CMBA], the absolute recovery in data set [1] (wastewater effluent) worked out at 101%; in data set [1] (wastewater influent), 109%; in data set [2] (nanopure water), 96.8%; in data set [2] (surface water), 38%; in data set [2] (wastewater effluent) it was 92.6%; in data set [2] (wastewater influent), 95.3%. The LC retention time in data set [3] amounted to 12.1 min.

As to `CS(=O)(=O)c1ccc(C(=O)[C-]2C(=O)CCCC2=O)c(Cl)c1` [Sulcotrion], the absolute recovery was 103% in data set [1] (wastewater effluent); 101% in data set [1] (wastewater influent); 97.7% in data set [2] (nanopure water); 93.4% in data set [2] (surface water); 94.8% in data set [2] (wastewater effluent); 93.9% in data set [2] (wastewater influent). In data set [3], this molecule showed an LC retention time of 16.7 min.

In the case of `COc1cc([N-]S(=O)(=O)c2ccc(N)cc2)nc(OC)n1` [Sulfadimethoxin], the absolute recovery in data set [1] (wastewater effluent) is 104%; in data set [1] (wastewater influent), 98.4%; in data set [2] (nanopure water), 95.1%; in data set [2] (surface water), 92%; in data set [2] (wastewater effluent), 90.3%; in data set [2] (wastewater influent), 90%. For the same molecule, in data set [3], the LC retention time came to 14.9 min.

In the case of `Cc1cc(C)nc([N-]S(=O)(=O)c2ccc(N)cc2)n1` [Sulfamethazin], the absolute recovery was determined as 103% in data set [1] (wastewater effluent); 96.1% in data set [1] (wastewater influent); 95.2% in data set [2] (nanopure water); 91.3% in data set [2] (surface water); 86.2% in data set [2] (wastewater effluent); 89.8% in data set [2] (wastewater influent). In addition, the LC retention time in data set [3] is 12.1 min.

`Cc1cc(N(C2OC(C(=O)[O-])C(O)C(O)C2O)S(=O)(=O)c2ccc(N)cc2)no1` (centres undefined) [Sulfamethoxazole-N1-Glucuronide]: the absolute recovery in data set [1] (wastewater effluent) amounted to 96.4%; in data set [1] (wastewater influent), 70.3%; in data set [2] (nanopure water), 86.9%; in data set [2] (surface water), 21.3%; in data set [2] (wastewater effluent), 49.2%; in data set [2] (wastewater influent) it was 66.1%. In addition, the LC retention time in data set [3] was 11.8 min.

In the case of `Nc1ccc(S(=O)(=O)[O-])cc1` [Sulfanilic-acid], the absolute recovery in data set [1] (wastewater effluent) worked out at 124%; in data set [1] (wastewater influent), 96.5%; in data set [2] (nanopure water) it was 10.3%; in data set [2] (surface water), 3.8%; in data set [2] (wastewater effluent), 4.2%; in data set [2] (wastewater influent), 6.4%. Also, the LC retention time in data set [3] was 3.46 min.

On to `Nc1ccc(S(=O)(=O)[N-]c2ccccn2)cc1` [Sulfapyridin], for which the absolute recovery in data set [1] (wastewater effluent) turned out to be 103%; in data set [1] (wastewater influent) it was 95.5%; in data set [2] (nanopure water) it was 98.5%; in data set [2] (surface water) it was 93.6%; in data set [2] (wastewater effluent), 88.1%; in data set [2] (wastewater influent), 96.2%. Further, in data set [3], the LC retention time stood at 10.7 min.

With `Nc1ccc(S(=O)(=O)[N-]c2nccs2)cc1` [Sulfathiazol], the absolute recovery in data set [1] (wastewater effluent) came to 99.3%; in data set [1] (wastewater influent), 90.4%; in data set [2] (nanopure water), 92.4%; in data set [2] (surface water) it was 91.4%; in data set [2] (wastewater effluent), 83.6%; in data set [2] (wastewater influent) it was 93.6%. The LC retention time in data set [3] was found to be 10.4 min.
